From article PMC7230731 (Marine Drugs, 2020)

Legend:
Type in all cases: cell-based, human
Bax = assay: ELISA immunoassay, Bax level; conditions: MCF-7 cells; for Bax: IC50 concentration, 48 h
Excerpt: Synchronization of the mitochondrial pathway is headed by the Bcl-2 family of proteins. These proteins are classified into two groups: anti-apoptotic proteins exemplified by Bcl-2 protein and the counteracting pro-apoptotic proteins including Bax protein [21]. As induction of the apoptotic machinery is one of the most useful strategies in cancer therapy, we investigated the effect of our compounds to boost the pro-apoptotic protein; Bax and reduce the anti-apoptotic protein; Bcl-2 in an attempt to explore the underlying mechanism for their cytotoxic activity (Table 1). […] Fortunately, both compounds markedly boosted the level of Bax by 8.3- and 6.4-fold, respectively (Table 4, Figure 3).
(§1) Effects of treatment of breast cancer MCF-7 cells with bis-indoles 7e and 9a on the expression levels of the pro-apoptotic markers (Bax, caspase-3, and p53) in addition to the anti-apoptotic protein Bcl-2 marker was assessed by the use of ELISA colorimetric kits as per the manufacturer’s instructions, as described earlier.
(§2) The levels of the pro-apoptotic markers (Bax, caspase-3 and p53) as well as the anti-apoptotic marker Bcl-2 were determined using ELISA colorimetric kits per the manufacturer’s instructions. Breast cancer MCF-7 cells were cultured as a monolayer in T-25 flasks and were seeded to attain 30% confluency prior to treatment. Cells were […]
(§3) At the end of treatment, cells were collected via trypsinization and centrifuged at 10,000 rpm. The pellet was then rinsed with PBS and lysed in RIPA lysis buffer at 4 °C for 45 min, then centrifuged at 14,000 rpm for 20 min to remove the cellular debris. Lysates were then collected and stored at −80 °C for later protein determination using Pierce BCA Protein Assay Kit according to manufacturer’s recommendations.
(§4) The cell lysate was diluted 10 times, and 100 μL ([…]) was added to the wells of four separate microtiter plates for the four ELISA kits that were pre-coated with primary antibodies specific to Bax, Bcl-2, caspase-3 and p53 proteins, respectively. A secondary biotin-linked antibody specific to the protein captured by the primary antibody was further added to bind the captured protein, forming a “sandwich” of specific antibodies around the desired protein in the cell lysate. The streptavidin-HRP complex was then used to bind the biotin-linked secondary antibody through its streptavidin portion. The HRP domain reacted with the added TMB substrate to form a colored product that measured at 450 nm by a plate reader ChroMate-4300 after the reaction was terminated via the addition of stop solution. […]
Breast […]
cancer MCF-7 cells were cultured to a monolayer then treated with bis-indoles 7e and 9a at their IC50 concentration. […]

caspase-3 = assay: ELISA immunoassay, active caspase-3 level; conditions: for increase of caspase-3 level vs control: MCF-7 cells; for Caspase-3: active caspase-3, MCF-7 cells, IC50 concentration, 48 h
Method: Moreover, their effect on the level of caspase-3; the executioner caspase and p53 was evaluated in the MCF-7 cell line. […] In addition, they augmented the level of p53 by 15.4- and 11.75-fold, respectively in comparison to the control (Table 5, Figure 3).
as §1, §2, §3, §4

MCF-10A cells = assay: SRB cytotoxicity assay, non-tumorigenic MCF-10A; conditions: for Selectivity Index MCF-10A/MCF-7: IC50 MCF-10A / IC50 MCF-7; for IC50: non-tumorigenic human breast epithelial MCF-10A cells, SRB assay
Excerpt: The two examined human breast cancer cell lines (MCF-7 and Breast MDA-MB-231), and non-tumorigenic human breast epithelial cell line (MCF-10A) have been obtained from the American Type Culture Collection (ATCC). Assessment of cytotoxicity for target indole derivatives has been performed following the SRB colorimetric assay procedures, as reported earlier.
1. Anti-proliferative action toward human breast cell lines
(§5) The two examined human breast cancer cell lines (MCF-7 and Breast MDA-MB-231), and non-tumorigenic human breast epithelial cell line (MCF-10A) have been obtained from American Type Culture Collection (ATCC). The cells were maintained in Dulbecco's modified Eagle's medium (DMEM) supplemented with 10% heat inactivated fetal calf serum (GIBCO), penicillin (100 U/ml) and streptomycin (100 µg/ml) at 37 °C in humidified atmosphere containing 5% CO2. Cells at a concentration of 0.50 x 106 were grown in a 25 cm2 flask in 5 ml of culture medium.
The anti-proliferative activity of the tested compounds was measured in vitro using the Sulfo-Rhodamine-B stain (SRB) assay. Briefly, Cells were inoculated in 96-well microtiter plate (5X104 cells/ well) for 24 h before treatment with the tested compounds to allow attachment of cell to the wall of the plate. Tested compounds were dissolved in DMSO at 1 mg/ml immediately before use and diluted to the appropriate volume just before addition to the cell culture. Different concentrations of tested compounds, doxorubicin and sorafenib were added to the cells (three wells were prepared for each individual dose). Cells were incubated with the compounds for 48 h at 37°C and in atmosphere of 5% CO2. After 48 h cells were fixed, washed, and stained for 30 min with 0.4% (w/v) SRB dissolved in 1% acetic acid. Unbound dye was removed by four washes with 1% acetic acid, and attached stain was recovered with Tris-EDTA buffer. Color intensity was measured in an ELISA reader. The relation between percent of surviving fraction and drug concentration is plotted to get the survival curve for each cell line. […]

MDA-MB-231 cells = assay: SRB antiproliferative assay, MDA-MB-231; conditions: for IC50: Homo sapiens, MDA-MB-231, 48 h, MDA-MB-231 triple-negative breast cancer cells, SRB assay, 48 h, mean ± S.D. of three experiments
Method: (§6) 1. Anti-proliferative action toward human breast cell lines […]
as §5, with “and” for “The two examined human breast cancer cell lines (MCF-7 and Breast MDA-MB-231), and”, “Cells at a concentration of 0.50 x 106 were grown in a 25 cm2 flask in 5 ml of culture medium.” left out
(§7) grown in a 25 cm2 flask in 5 ml of culture medium.
(§8) The anti-proliferative activity of the tested compounds was measured in vitro using the Sulfo-Rhodamine-B stain (SRB) assay. Briefly, Cells were inoculated in 96-well microtiter plate (5X104 cells/ well) for 24 h before treatment with the tested compounds to allow attachment of cell to the wall of the plate. Tested compounds were dissolved in DMSO at 1 mg/ml immediately before use and diluted to the appropriate volume just before addition to the cell culture. Different concentrations of tested compounds, doxorubicin and sorafenib were added to the cells (three wells were prepared for each […]
(§9) atmosphere of 5% CO2. After 48 h cells were fixed, washed, and stained for 30 min with 0.4% (w/v) SRB dissolved in 1% acetic acid. Unbound dye was removed by four washes with 1% acetic acid, and attached stain was recovered with Tris-EDTA buffer. Color intensity was measured in an ELISA reader. The relation between percent of surviving fraction and drug concentration is plotted to get the survival curve for each cell line. […]

MCF-7 cells = assay: SRB antiproliferative assay, MCF-7; conditions: for IC50: Homo sapiens, MCF7, 48 h, MCF-7 breast cancer cells, SRB assay, 48 h, mean ± S.D. of three experiments; for potency relative to Staurosporine, MCF-7: ratio of IC50 values, MCF-7 cells
Method: as §6
as §5, with “and” for “The two examined human breast cancer cell lines (MCF-7 and Breast MDA-MB-231), and”, “Cells at a concentration of 0.50 x 106 were grown in a 25 cm2 flask in 5 ml of culture medium.” left out
as §7, §8, §9

C=CCN1C(=O)C(=NNC(=O)Cc2c[nH]c3ccccc23)c2ccccc21 [Compound 9a, N′-(1-Allyl-2-oxoindolin-3-ylidene)-2-(1H-indol-3-yl)acetohydrazide]
increase of Bax level vs control (Bax): 6.4 fold | Bax (Bax): 243.6 ± 12.4 pg/mg of Total Protein | increase of caspase-3 level vs control (caspase-3): 9.5 fold | Caspase-3 (caspase-3): 331.0 ± 12.5 pg/mg | Selectivity Index MCF-10A/MCF-7 (MCF-10A cells): 18.3 | IC50 (MCF-10A cells): 23.5 µM | IC50 (MDA-MB-231 cells): 18.2 ± 0.62 µM | IC50 (MCF-7 cells): 1.28 ± 0.04 µM | potency relative to Staurosporine, MCF-7 (MCF-7 cells): 5.3 times

O=C(Cc1c[nH]c2ccccc12)NN=C1C(=O)Nc2ccc([N+](=O)[O-])cc21 [Compound 7e, 2-(1H-Indol-3-yl)-N′-(5-nitro-2-oxoindolin-3-ylidene)acetohydrazide]
increase of Bax level vs control (Bax): 8.3 fold | Bax (Bax): 318.0 ± 10.5 pg/mg of Total Protein | increase of caspase-3 level vs control (caspase-3): 11.7 fold | Caspase-3 (caspase-3): 409.2 ± 17.2 pg/mg | Selectivity Index MCF-10A/MCF-7 (MCF-10A cells): 38.7 | IC50 (MCF-10A cells): 17.1 µM | IC50 (MDA-MB-231 cells): 1.32 ± 0.03 µM | potency relative to Staurosporine, MDA-MB-231 (MDA-MB-231 cells; ratio of IC50 values, MDA-MB-231 cells): 7.8 times | IC50 (MCF-7 cells): 0.44 ± 0.01 µM | potency relative to Staurosporine, MCF-7 (MCF-7 cells): 15.5 times
